Data as given in PubChem BioAssay (NCI).
Where a name gives a salt, the structure may show the parent alone.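 Results reflect a 48-hour exposure of cells in 96-well plates to compound at five concentrations. At the TGI there is no net growth.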 *1 amine or outer side, *2 acyl side, *3 side chain or, on linkers, in order; H or OH if unused. Where a SMILES comes first, the peptide text is derived from it. [ ]: non-standard residue; d: D form. The star is where a group is joined. X31 = CC(=O)N(C)SCC(N[*:1])C(=O)[*:2]; X47 = CC(=O)N(C)SCC(N*)/C(O)=N\O; Cbz = O=C(OCc1ccccc1)*; Tfa = O=C(C(F)(F)F)*; Bn = c1ccc(C*)cc1; For = O=C*

Legend:
Test in all cases: NCI-60 cell line screen, 48 h
[1] = tested on: A498 renal
[2] = tested on: RPMI-8226 leukemia
[3] = tested on: BT-549 breast
[4] = tested on: TK-10 renal
[5] = tested on: UACC-62 melanoma
[6] = tested on: SW-620 colon
[7] = tested on: ACHN renal
[8] = tested on: M14 melanoma
[9] = tested on: SR leukemia
[10] = tested on: T-47D breast
[11] = tested on: CCRF-CEM leukemia
[12] = tested on: HCC-2998 colon
[13] = tested on: NCI/ADR-RES ovarian
[14] = tested on: EKVX NSCLC
[15] = tested on: HL-60(TB) leukemia
[16] = tested on: SF-539 CNS
[17] = tested on: OVCAR-4 ovarian
[18] = tested on: LOX IMVI melanoma
[19] = tested on: MALME-3M melanoma

SMILES | TGI [1] | TGI [2] | TGI [3] | TGI [4] | TGI [5] | TGI [6] | TGI [7] | TGI [8] | TGI [9] | TGI [10] | TGI [11] | TGI [12] | TGI [13] | TGI [14] | TGI [15] | TGI [16] | TGI [17] | TGI [18] | TGI [19]
COc1cc2c(/C=C3/C(=O)N(C)c4ccccc43)c(Cl)[nH]c2cc1C | > 50.6 µM | 7.79 µM | 3.64 µM | 5.16 µM | > 52.3 µM | > 100 µM | > 55.9 µM | 11.5 µM | 10.2 µM | > 100 µM | > 26.8 µM | 0.317 µM | 2.67 µM | > 47.2 µM | 0.666 µM | 0.0807 µM | 4.14 µM | 11.4 µM | –
O=C(Nn1c(-c2ccccc2)nc2ccccc2c1=O)c1ccc(CS)cc1 | 99.8 µM | > 100 µM | 52.8 µM | > 100 µM | > 100 µM | > 100 µM | > 100 µM | > 100 µM | > 100 µM | > 100 µM | 39.3 µM | > 100 µM | – | > 100 µM | 50.1 µM | 67.7 µM | > 100 µM | 5.38 µM | > 100 µM
COc1cc(C2SCC(=O)N2c2cc(Cl)c(Cl)cc2Cl)cc(OC)c1OC (stereo not given) | > 100 µM | 89.7 µM | 64.7 µM | > 100 µM | 97.6 µM | > 100 µM | > 100 µM | > 100 µM | 84.3 µM | – | 77.6 µM | > 100 µM | > 100 µM | > 100 µM | > 100 µM | > 100 µM | > 100 µM | > 100 µM | –
CC(=O)ON(C(C)=O)c1ccc(-c2nc3ccccc3s2)cc1 | > 67.2 µM | 55.4 µM | > 100 µM | > 100 µM | 48.7 µM | > 59.9 µM | 50.4 µM | 64 µM | > 100 µM | > 66.5 µM | > 100 µM | 41.9 µM | 39.9 µM | 65.2 µM | – | 29.4 µM | > 100 µM | > 66.7 µM | 30.5 µM
CC(=O)Nc1ccc(Nc2cc(=O)[nH]c(=O)[nH]2)cc1 | > 100 µM | > 100 µM | > 100 µM | > 100 µM | – | > 100 µM | > 100 µM | > 100 µM | > 100 µM | > 100 µM | – | > 100 µM | > 100 µM | > 100 µM | > 100 µM | > 100 µM | > 100 µM | > 100 µM | > 100 µM
O=S(=O)(O)c1c(Cl)cc(O)c2ncccc12 | > 100 µM | > 100 µM | > 100 µM | – | > 100 µM | > 100 µM | > 100 µM | > 100 µM | > 100 µM | > 100 µM | > 100 µM | > 100 µM | > 100 µM | > 100 µM | – | > 100 µM | > 100 µM | > 100 µM | –
O=c1sc2c(s1)SSSSS2 | > 50 µM | > 50 µM | > 50 µM | > 50 µM | > 50 µM | > 50 µM | > 50 µM | > 50 µM | > 50 µM | > 50 µM | 42.1 µM | > 50 µM | > 50 µM | > 50 µM | – | > 50 µM | > 50 µM | > 50 µM | > 50 µM
Cc1ccc2c3c1O[C@H]1c4[nH]c5ccccc5c4C[C@@]4(O)[C@@H](C2)N(C)CC[C@]314 | 32.3 µM | 31.6 µM | 31.8 µM | – | 31.1 µM | 30.1 µM | 29.5 µM | 31.1 µM | 41.9 µM | – | 35 µM | – | 35.8 µM | – | 30.7 µM | 31.9 µM | 34 µM | 29.6 µM | 29.3 µM
NCCSc1nc2ccccc2s1 | 90.7 µM | 95.7 µM | 93.8 µM | 66.3 µM | > 100 µM | > 100 µM | > 100 µM | > 100 µM | 79.5 µM | – | > 100 µM | – | > 100 µM | 80.6 µM | > 100 µM | 37.6 µM | > 100 µM | 90.8 µM | > 100 µM
COc1cc(C=O)ccc1Oc1nnnn1-c1ccccc1 | – | 98.2 µM | > 100 µM | > 100 µM | – | > 100 µM | – | > 100 µM | 51.1 µM | 58 µM | 52.4 µM | – | > 100 µM | > 100 µM | – | – | > 100 µM | > 100 µM | > 100 µM
CC(C)(C)c1cc(CC2C(=O)c3ccccc3C2=O)cc(C(C)(C)C)c1O | 47.7 µM | 3.34 µM | 18.1 µM | 23.7 µM | 17.7 µM | 17.1 µM | > 100 µM | 11.6 µM | 16.6 µM | – | 40.7 µM | – | > 100 µM | 28 µM | 6.69 µM | 16.7 µM | > 100 µM | 16.2 µM | –
O=C(O)CC(NC(=O)C(F)(F)F)C(=O)NC(Cc1ccc(O)cc1)C(=O)O (stereo not drawn) (Tfa-Asp-Tyr-OH; configuration not given here) | – | > 50 µM | > 50 µM | > 50 µM | > 50 µM | > 50 µM | > 50 µM | > 50 µM | > 50 µM | > 50 µM | – | > 50 µM | > 50 µM | > 50 µM | – | > 50 µM | – | – | > 50 µM
CC(=O)N(C)SCC(NC(=O)C(Cc1ccccc1)NC(=O)OCc1ccccc1)C(=O)NC(Cc1ccccc1)C(=O)NC(Cc1cn(C=O)c2ccccc12)C(=O)NC(CCCCNC(=O)OCc1ccccc1)C(=O)NC(C(=O)NC(CSN(C)C(C)=O)/C(O)=N\O)C(C)OCc1ccccc1 (stereo not given) (Cbz-F[X31]FW(For)K(Cbz)T(Bn)-X47; configuration not given here) | – | > 100 µM | > 100 µM | > 100 µM | > 100 µM | > 100 µM | > 100 µM | > 100 µM | > 100 µM | > 100 µM | > 100 µM | > 100 µM | > 100 µM | > 100 µM | > 100 µM | > 100 µM | > 100 µM | > 100 µM | > 100 µM
